Results: patent US20250257059A1, “PROTEIN TYROSINE PHOSPHATASE INHIBITORS AND USES THEREOF” (Nerio Therapeutics, Inc., priority 2022, published 2025)
Where two headings read alike, the source gives them in different places.

Legend:
[1] = target: full-length human PTPN2 (TC45) (1-387) (Homo sapiens (Human), UniProt P17706); assay: Enzymatic assay used to determine potency of PTPN2 inhibitors (full length PTPN2 DiFMUP assay); assay type: biochemical; settings: 0.5 nM PTPN2, 100 μM DiFMUP, 30 min at room temperature
Protocol: Compound activity was determined in an in vitro enzymatic assay using untagged, full-length human PTPN2 (TC45) (1-387) protein. PTPN2 was produced in E. coli as a GST-TEV fusion and the GST was removed by TEV digestion, followed by additional purification to yield full-length PTPN2 (SEQ ID 1). PTPN2 enzyme was diluted in assay buffer (50 mM HEPES pH7.5, 0.2 mM EDTA, 1 mM DTT, 0.02% Brij-35, 0.02% BSA) to a final concentration of 0.5 nM and added to black 384-well non-binding plates (Greiner, 781900). Compounds were subsequently added using a Tecan D300e dispenser. Following a 10 min incubation at room temperature, DiFMUP substrate (ThermoFisher, D22065) was added to a final concentration of 100 μM. Plates were transferred to a SpectraMax plate reader (Molecular Devices) and fluorescence intensity was measured (ex 358, em 455) after a 30 min incubation at room temperature. […] A four-parameter curve fit was used to determine IC50 values from % inhibition data.

[2] = test system: murine B16F10 melanoma cell line; assay: B16F10 IFNγ-induced cellular growth inhibition assay (xCELLigence RTCA); assay type: cell-based; settings: B16F10 cells, 1 ng/mL mouse IFNγ, AUC of growth curve, read-out: B16 IFNγ Mediated Growth Inhibition Assay: AVG IC50
Protocol: Compound activity was determined using an interferon gamma (IFNγ)-induced cellular growth inhibition assay with the murine B16F10 melanoma cell line on an Agilent xCELLigence Real-Time Cell Analysis platform (RTCA). RTCA E-Plate View 96 plates (Agilent, 300601010) were pre-equilibrated with 50 μL of assay media (DMEM+10% FBS, Gibco 10566-024, Gibco 10082-147) at 37° C. in a humidified incubator before taking an initial measurement of impedance (sweep). B16F10 cells cultured in assay media were dissociated with TrypLE Express (Gibco 12605-010) for five minutes at 37° C., diluted in 3 volumes of assay buffer, centrifuged for 5 minutes at 500×g at room temperature before diluting cells to 7,700 cells/mL in assay media, plating 130 μL/well (1,000 cells/well) in the inner 60 wells of the assay plate, and adding 150 μL of assay media to the outer wells of the plate. Cells were incubated at room temperature for 20 min to allow cells to settle before placing them in the xCELLigence reader and incubating overnight at 37° C., sweeping wells every 15 minutes. After 24 hours, well readings were paused, plates were removed from the incubator and compounds were added using a Tecan D300e dispenser. All wells were normalized to a final concentration of 0.5% DMSO. Following a 30 min incubation at 37° C., recombinant mouse IFNγ (R&D Systems™ 485MI100) was diluted to 10 ng/mL in assay media and 20 μL was added to assay wells (1 ng/mL final concentration). Assay plates were placed in the xCELLigence reader and swept every 15 minutes.

Chain of full-length human PTPN2 (TC45) (1-387) (P17706 other isoform, or with tags, fused parts or gaps): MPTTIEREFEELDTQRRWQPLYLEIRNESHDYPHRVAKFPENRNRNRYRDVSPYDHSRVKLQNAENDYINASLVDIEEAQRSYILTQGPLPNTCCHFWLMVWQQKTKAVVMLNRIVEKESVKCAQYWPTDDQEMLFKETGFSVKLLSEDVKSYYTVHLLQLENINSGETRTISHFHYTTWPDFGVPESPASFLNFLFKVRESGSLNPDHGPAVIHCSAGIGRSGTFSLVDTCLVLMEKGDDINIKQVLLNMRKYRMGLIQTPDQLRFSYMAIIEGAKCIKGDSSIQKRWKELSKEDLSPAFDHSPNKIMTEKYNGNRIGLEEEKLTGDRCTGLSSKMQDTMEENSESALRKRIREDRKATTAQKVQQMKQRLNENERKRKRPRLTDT

Row | SMILES | IC50 [1] | IC50 ([2]; Mus musculus, B16-F10, 48 h) | IC50 ([2]; 48 hours)
1 | O=C1CN(c2c(O)ccc(CC3CCCCN3CCc3ccccc3)c2F)S(=O)(=O)N1 (stereo not drawn) [Example 78] | 13 nM | 11000 nM | 
2 | O=C1CN(c2c(O)cc(CCN3CCCC3)cc2F)S(=O)(=O)N1 [Example 83, 5-(2-fluoro-6-hydroxy-4-(2-(pyrrolidin-1-yl)ethyl)phenyl)-1,2,5-thiadiazolidin-3-one 1,1-dioxide] | 3 nM | 674 nM | 
3 | CCC1CCCN1CCc1cc(O)c(N2CC(=O)NS2(=O)=O)c(F)c1 (stereo not drawn) [Example 84, 5-(4-(2-(2-ethylpyrrolidin-1-yl)ethyl)-2-fluoro-6-hydroxyphenyl)-1,2,5-thiadiazolidin-3-one 1,1-dioxide] | 13 nM | 13700 nM | 
4 | CC(C)CC1CCN(CCc2cc(O)c(N3CC(=O)NS3(=O)=O)c(F)c2)C1 (stereo not drawn) [Example 85] | 2 nM | 331 nM | 
5 | CCCC1CCN(CCc2cc(O)c(N3CC(=O)NS3(=O)=O)c(F)c2)C1 (stereo not drawn) [Example 86] | 4 nM | 651 nM | 
6 | CCC1CCN(CCc2cc(O)c(N3CC(=O)NS3(=O)=O)c(F)c2)C1 (stereo not drawn) [Example 87] | 3 nM | 299 nM | 
7 | CC(C)CCC1CCN(CCc2cc(O)c(N3CC(=O)NS3(=O)=O)c(F)c2)C1 (stereo not drawn) [Example 88] | 3 nM | 1020 nM | 
8 | O=C1CN(c2c(O)cc(CCN3CCCCC3)cc2F)S(=O)(=O)N1 [Example 90] | 2 nM | 1220 nM | 
9 | O=C1CN(c2c(O)cc(CCN3CCC(F)(F)C3)cc2F)S(=O)(=O)N1 [Example 91] | 36 nM | > 24000 nM | 
10 | O=C1CN(c2c(O)cc(CCN3CCC(F)C3)cc2F)S(=O)(=O)N1 (stereo not drawn) [Example 92] | 3 nM | 504 nM | 
11 | CC1(C)CCN(CCc2cc(O)c(N3CC(=O)NS3(=O)=O)c(F)c2)CC1 [Example 93] | 3 nM | 475 nM | 
12 | O=C1CN(c2c(O)cc(CCN3CC[C@H](F)C3)cc2F)S(=O)(=O)N1 [Example 94] | 2 nM | 469 nM | 
13 | O=C1CN(c2c(O)cc(CCN3CC[C@@H](F)C3)cc2F)S(=O)(=O)N1 [Example 95] | 2 nM | 432 nM | 
14 | O=C1CN(c2c(O)cc(CCN3CCC(C(F)(F)F)C3)cc2F)S(=O)(=O)N1 (stereo not drawn) [Example 96] | 2 nM | 680 nM | 
15 | O=C1CN(c2c(O)cc(CCN3CCC(F)(F)CC3)cc2F)S(=O)(=O)N1 [Example 98] | 5 nM | 1050 nM | 
16 | O=C1CN(c2c(O)cc(CCN3CCC4(CCC4)C3)cc2F)S(=O)(=O)N1 [Example 99] | 2 nM | 183 nM | 
17 | O=C1CN(c2c(O)cc(CCN3CCNCC3)cc2F)S(=O)(=O)N1 [Example 100] | 5 nM | 51000 nM | 
18 | O=C1CN(c2c(O)cc(CCN3CCC(O)CC3)cc2F)S(=O)(=O)N1 [Example 101] | 2 nM | 1690 nM | 
19 | O=C1CN(c2c(O)cc(CCN3CCC(CO)C3)cc2F)S(=O)(=O)N1 (stereo not drawn) [Example 102] | 2 nM | 605 nM | 
20 | O=C1CN(c2c(O)cc(CCN3CCC(O)C3)cc2F)S(=O)(=O)N1 (stereo not drawn) [Example 103] | 50 nM | 13200 nM | 
21 | O=C1CN(c2c(O)cc(CCN3CCC4(CCC4)CC3)cc2F)S(=O)(=O)N1 [Example 105] | 3 nM | 219 nM | 

Row | SMILES | IC50 [1] | IC50 ([2]; Mus musculus, B16-F10, 48 h) | IC50 ([2]; 48 hours)
22 | CC1(F)CCN(CCc2cc(O)c(N3CC(=O)NS3(=O)=O)c(F)c2)C1 (stereo not drawn) [Example 106] | 2 nM | 256 nM | 
23 | O=C1CN(c2c(O)cc(CCN3CCC4(CC3)CC4)cc2F)S(=O)(=O)N1 [Example 107] | 2 nM | 256 nM | 
24 | CC1(C)CCN(CCc2cc(O)c(N3CC(=O)NS3(=O)=O)c(F)c2)C1 [Example 108] | 2 nM | 129 nM | 
25 | CC[C@H]1CCN(CCc2cc(O)c(N3CC(=O)NS3(=O)=O)c(F)c2)C1 [Example 109] | 3 nM | 162 nM | 
26 | CC[C@@H]1CCN(CCc2cc(O)c(N3CC(=O)NS3(=O)=O)c(F)c2)C1 [Example 110] | 2 nM | 127 nM | 
27 | O=C1CN(c2c(O)cc(CCN3CC4(CCCC4)C3)cc2F)S(=O)(=O)N1 [Example 114] | 7 nM | 371 nM | 
28 | O=C1CN(c2c(O)cc(CCN3CCC4(CCCCC4)C3)cc2F)S(=O)(=O)N1 [Example 116] | 2 nM | 172 nM | 
29 | CC(C)(C)C1CCN(CCc2cc(O)c(N3CC(=O)NS3(=O)=O)c(F)c2)CC1 [Example 118] | 3 nM | 3220 nM | 
30 | O=C1CN(c2c(O)cc(CCN3CCC(C4CCC4)CC3)cc2F)S(=O)(=O)N1 [Example 121] | 2 nM | 2830 nM | 
31 | O=C1CN(c2c(O)cc(CCN3CC4(CCC4)C3)cc2F)S(=O)(=O)N1 [Example 124] | 2 nM | 943 nM | 
32 | CCC1CCN(CCc2cc(O)c(N3CC(=O)NS3(=O)=O)c(F)c2)CC1 [Example 125] | 2 nM | 3090 nM | 
33 | CCC1CN(CCc2cc(O)c(N3CC(=O)NS3(=O)=O)c(F)c2)C1 [Example 126] | 3 nM | 775 nM | 
34 | CC(C)(C)C1CN(CCc2cc(O)c(N3CC(=O)NS3(=O)=O)c(F)c2)C1 [Example 129] | 2 nM | 660 nM | 
35 | O=C1CN(c2c(O)cc(CCN3CCC(CC(F)(F)F)C3)cc2F)S(=O)(=O)N1 (stereo not drawn) [Example 130] | 1 nM | 208 nM | 
36 | O=C1CN(c2c(O)cc(CCN3CCC4(CC4)C3)cc2F)S(=O)(=O)N1 [Example 131] | 1 nM | 489 nM | 
37 | CC(C)C1CN(CCc2cc(O)c(N3CC(=O)NS3(=O)=O)c(F)c2)C1 [Example 132] | 3 nM |  | 579 nM
38 | O=C1CN(c2c(O)cc(CCN3CC4CCC3C4)cc2F)S(=O)(=O)N1 (stereo not drawn) [Example 133] | 3 nM | 1040 nM | 
39 | C[C@@H]1CCN(CCc2cc(O)c(N3CC(=O)NS3(=O)=O)c(F)c2)C1 [Example 138] | 2 nM | 406 nM | 
40 | C[C@H]1CCN(CCc2cc(O)c(N3CC(=O)NS3(=O)=O)c(F)c2)C1 [Example 139] | 2 nM | 509 nM | 
41 | O=C1CN(c2c(O)cc(CCN3CC(CF)C3)cc2F)S(=O)(=O)N1 [Example 141] | 3 nM | 370 nM | 
42 | O=C1CN(c2c(O)cc(CCN3CC(CC(F)(F)F)C3)cc2F)S(=O)(=O)N1 [Example 142] | 3 nM | 542 nM | 
